Measurements taken from the supplement of paper PMC11562712.
Structures can show the parent of a compound that is named as a salt.

Test: first-order primary biodegradation rate constant k (sorption-corrected, fDis-corrected) (d-1); higher = faster biodegradation
Summary of the method: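 River water with sieved sediment (50 g wet solid L^–1) from German, Swiss, Spanish and Greek river segments was spiked with 129 compounds at 1 μg L^–1 each. It was shaken in the dark at river water temperature (20.5 ± 3.5 °C) for 10 days. Filtered water-phase subsamples were analysed by UHPLC-Orbitrap-MS/MS. First-order k came from log peak-area regression over three replicates, corrected for azide-sterilised sorption-control dissipation and divided by dissolved fraction; invalid fits excluded.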

[1] = river segment: Germany (DE) H_Contam, incubation temperature 24 °C
[2] = river segment: Germany (DE) T_Contam, incubation temperature 24 °C
[3] = river segment: Germany (DE) T_Pris, incubation temperature 24 °C
[4] = river segment: Greece (EL) A_Contam, incubation temperature 19 °C
[5] = river segment: Greece (EL) G_Contam, incubation temperature 19 °C
[6] = river segment: Greece (EL) G_Pris, incubation temperature 19 °C
[7] = river segment: Greece (EL) L_Contam, incubation temperature 19 °C
[8] = river segment: Spain (ES) B_Contam, incubation temperature 24 °C
[9] = river segment: Spain (ES) C_Contam, incubation temperature 24 °C
[10] = river segment: Spain (ES) F_Pris_Salt, incubation temperature 24 °C
[11] = river segment: Spain (ES) L_Contam, incubation temperature 24 °C
[12] = river segment: Switzerland (CH) C_Contam, incubation temperature 17 °C
[13] = river segment: Switzerland (CH) R_Contam, incubation temperature 17 °C
[14] = river segment: Switzerland (CH) U_Contam, incubation temperature 17 °C
[15] = river segment: Switzerland (CH) U_Pris, incubation temperature 17 °C

CNC(=C[N+](=O)[O-])NCCSCc1ccc(CN(C)C)o1 [Ranitidine]
first-order primary biodegradation rate constant k [1]: 0.498
first-order primary biodegradation rate constant k [2]: 28.6
first-order primary biodegradation rate constant k [3]: 17.5
first-order primary biodegradation rate constant k [4]: 6.6
first-order primary biodegradation rate constant k [5]: 1.42
first-order primary biodegradation rate constant k [6]: 28.8
first-order primary biodegradation rate constant k [7]: 3.75
first-order primary biodegradation rate constant k [8]: 1.57
first-order primary biodegradation rate constant k [9]: 0.0642
first-order primary biodegradation rate constant k [10]: 0.103
first-order primary biodegradation rate constant k [11]: 3.75
first-order primary biodegradation rate constant k [12]: 0.639
first-order primary biodegradation rate constant k [13]: 0.559
first-order primary biodegradation rate constant k [14]: 0.756
first-order primary biodegradation rate constant k [15]: 0.596

NC(=O)c1cn(Cc2c(F)cccc2F)nn1 [Rufinamide]
first-order primary biodegradation rate constant k [1]: 0.387
first-order primary biodegradation rate constant k [2]: 1.31
first-order primary biodegradation rate constant k [3]: 0.365
first-order primary biodegradation rate constant k [4]: 1.16
first-order primary biodegradation rate constant k [5]: 0.652
first-order primary biodegradation rate constant k [6]: 2.31
first-order primary biodegradation rate constant k [7]: 1.2
first-order primary biodegradation rate constant k [8]: 0.38
first-order primary biodegradation rate constant k [9]: 0.286
first-order primary biodegradation rate constant k [10]: 0.221
first-order primary biodegradation rate constant k [11]: 0.565
first-order primary biodegradation rate constant k [12]: 0.44
first-order primary biodegradation rate constant k [13]: 0.57
first-order primary biodegradation rate constant k [14]: 0.383
first-order primary biodegradation rate constant k [15]: 1.15

CC(C)NCC(O)c1ccc(NS(C)(=O)=O)cc1 (stereo unspecified) [Sotalol]
first-order primary biodegradation rate constant k [1]: 0.132
first-order primary biodegradation rate constant k [2]: 0.195
first-order primary biodegradation rate constant k [3]: 0.076
first-order primary biodegradation rate constant k [4]: 0.193
first-order primary biodegradation rate constant k [5]: 0.107
first-order primary biodegradation rate constant k [6]: 0.0804
first-order primary biodegradation rate constant k [7]: 0.337
first-order primary biodegradation rate constant k [8]: 0.147
first-order primary biodegradation rate constant k [9]: 0.232
first-order primary biodegradation rate constant k [10]: 0.0178
first-order primary biodegradation rate constant k [11]: 0.217
first-order primary biodegradation rate constant k [12]: 0.0406
first-order primary biodegradation rate constant k [13]: 0.0937
first-order primary biodegradation rate constant k [14]: 0.108
first-order primary biodegradation rate constant k [15]: 0.171

COc1cc(NS(=O)(=O)c2ccc(N)cc2)nc(OC)n1 [Sulfadimethoxine]
first-order primary biodegradation rate constant k [1]: 0.129
first-order primary biodegradation rate constant k [2]: 0.416
first-order primary biodegradation rate constant k [4]: 0.0824
first-order primary biodegradation rate constant k [5]: 0.0668
first-order primary biodegradation rate constant k [6]: 0.237
first-order primary biodegradation rate constant k [7]: 0.123
first-order primary biodegradation rate constant k [8]: 1.13
first-order primary biodegradation rate constant k [11]: 1.27
first-order primary biodegradation rate constant k [12]: 0.0158
first-order primary biodegradation rate constant k [13]: 0.00496
first-order primary biodegradation rate constant k [15]: 0.0859

Cc1cc(C)nc(NS(=O)(=O)c2ccc(N)cc2)n1 [Sulfamethazine]
first-order primary biodegradation rate constant k [1]: 0.11
first-order primary biodegradation rate constant k [2]: 0.365
first-order primary biodegradation rate constant k [4]: 0.0988
first-order primary biodegradation rate constant k [5]: 0.0667
first-order primary biodegradation rate constant k [6]: 0.729
first-order primary biodegradation rate constant k [7]: 0.357
first-order primary biodegradation rate constant k [11]: 0.9
first-order primary biodegradation rate constant k [15]: 0.0819

Cc1cc(NS(=O)(=O)c2ccc(N)cc2)no1 [Sulfamethoxazole]
first-order primary biodegradation rate constant k [1]: 0.0889
first-order primary biodegradation rate constant k [2]: 0.143
first-order primary biodegradation rate constant k [4]: 0.0196
first-order primary biodegradation rate constant k [5]: 0.0964
first-order primary biodegradation rate constant k [7]: 0.063
first-order primary biodegradation rate constant k [11]: 1.1

COc1ccc(NS(=O)(=O)c2ccc(N)cc2)nn1 [Sulfamethoxypyridazine]
first-order primary biodegradation rate constant k [1]: 0.0977
first-order primary biodegradation rate constant k [2]: 0.382
first-order primary biodegradation rate constant k [4]: 0.161
first-order primary biodegradation rate constant k [5]: 0.396
first-order primary biodegradation rate constant k [6]: 0.441
first-order primary biodegradation rate constant k [7]: 0.195
first-order primary biodegradation rate constant k [11]: 1.07
first-order primary biodegradation rate constant k [12]: 0.0233
first-order primary biodegradation rate constant k [15]: 0.0441

Nc1ccc(S(=O)(=O)Nc2nccs2)cc1 [Sulfathiazole]
first-order primary biodegradation rate constant k [1]: 0.0753
first-order primary biodegradation rate constant k [3]: 0.259
first-order primary biodegradation rate constant k [4]: 1.21
first-order primary biodegradation rate constant k [5]: 1.63
first-order primary biodegradation rate constant k [6]: 1.17
first-order primary biodegradation rate constant k [7]: 0.81
first-order primary biodegradation rate constant k [8]: 0.646
first-order primary biodegradation rate constant k [9]: 0.00288
first-order primary biodegradation rate constant k [10]: 0.0294
first-order primary biodegradation rate constant k [11]: 1.5
first-order primary biodegradation rate constant k [12]: 0.0717
first-order primary biodegradation rate constant k [13]: 0.119
first-order primary biodegradation rate constant k [15]: 0.0554

CCOc1ccccc1OCCN[C@H](C)Cc1ccc(OC)c(S(N)(=O)=O)c1 [Tamsulosin]
first-order primary biodegradation rate constant k [1]: 0.0512
first-order primary biodegradation rate constant k [3]: 0.204
first-order primary biodegradation rate constant k [4]: 0.786
first-order primary biodegradation rate constant k [5]: 1.15
first-order primary biodegradation rate constant k [8]: 0.121
first-order primary biodegradation rate constant k [9]: 0.261
first-order primary biodegradation rate constant k [11]: 0.41
first-order primary biodegradation rate constant k [12]: 0.0347
first-order primary biodegradation rate constant k [13]: 0.0781
first-order primary biodegradation rate constant k [14]: 0.0824
first-order primary biodegradation rate constant k [15]: 0.0624

CCNc1nc(NC(C)(C)C)nc(SC)n1 [Terbutryn]
first-order primary biodegradation rate constant k [2]: 0.0714
first-order primary biodegradation rate constant k [4]: 0.0617
first-order primary biodegradation rate constant k [5]: 0.247
first-order primary biodegradation rate constant k [11]: 0.134
first-order primary biodegradation rate constant k [14]: 0.116
first-order primary biodegradation rate constant k [15]: 0.068

COc1cccc(C2(O)CCCCC2CN(C)C)c1 (stereo unspecified) [Tramadol]
first-order primary biodegradation rate constant k [1]: 0.0149
first-order primary biodegradation rate constant k [2]: 0.058
first-order primary biodegradation rate constant k [3]: 0.00925
first-order primary biodegradation rate constant k [4]: 0.0025
first-order primary biodegradation rate constant k [6]: 0.0141
first-order primary biodegradation rate constant k [7]: 0.0437
first-order primary biodegradation rate constant k [8]: 0.00653
first-order primary biodegradation rate constant k [9]: 0.00694
first-order primary biodegradation rate constant k [11]: 0.00992
first-order primary biodegradation rate constant k [13]: 0.00497
first-order primary biodegradation rate constant k [14]: 0.0131
first-order primary biodegradation rate constant k [15]: 0.0152

CCOC(=O)CC(O)(CC(=O)OCC)C(=O)OCC [Triethyl citrate]
first-order primary biodegradation rate constant k [2]: 0.275
first-order primary biodegradation rate constant k [3]: 0.0369
first-order primary biodegradation rate constant k [11]: 0.339
first-order primary biodegradation rate constant k [12]: 0.00672
first-order primary biodegradation rate constant k [13]: 0.0597
first-order primary biodegradation rate constant k [14]: 0.127
first-order primary biodegradation rate constant k [15]: 0.0638

COc1cc(Cc2cnc(N)nc2N)cc(OC)c1OC [Trimethoprim]
first-order primary biodegradation rate constant k [1]: 0.173
first-order primary biodegradation rate constant k [3]: 0.612
first-order primary biodegradation rate constant k [4]: 0.431
first-order primary biodegradation rate constant k [5]: 0.993
first-order primary biodegradation rate constant k [6]: 0.704
first-order primary biodegradation rate constant k [7]: 1.57
first-order primary biodegradation rate constant k [8]: 0.192
first-order primary biodegradation rate constant k [9]: 0.383
first-order primary biodegradation rate constant k [10]: 0.726
first-order primary biodegradation rate constant k [11]: 0.758
first-order primary biodegradation rate constant k [12]: 1.11
first-order primary biodegradation rate constant k [13]: 1.65
first-order primary biodegradation rate constant k [14]: 2.23
first-order primary biodegradation rate constant k [15]: 2.52

CCOC(=O)C1CC(=O)C(=C(O)C2CC2)C(=O)C1 (stereo unspecified) [Trinexapac-ethyl]
first-order primary biodegradation rate constant k [1]: 0.0565
first-order primary biodegradation rate constant k [2]: 0.461
first-order primary biodegradation rate constant k [3]: 0.0811
first-order primary biodegradation rate constant k [4]: 0.435
first-order primary biodegradation rate constant k [5]: 0.0205
first-order primary biodegradation rate constant k [6]: 0.252
first-order primary biodegradation rate constant k [7]: 0.256
first-order primary biodegradation rate constant k [8]: 0.337
first-order primary biodegradation rate constant k [9]: 0.0822
first-order primary biodegradation rate constant k [11]: 0.373
first-order primary biodegradation rate constant k [12]: 0.0493
first-order primary biodegradation rate constant k [13]: 0.149
first-order primary biodegradation rate constant k [14]: 0.178
first-order primary biodegradation rate constant k [15]: 0.195

CCCCC(=O)N(Cc1ccc(-c2ccccc2-c2nnn[nH]2)cc1)[C@H](C(=O)O)C(C)C [Valsartan]
first-order primary biodegradation rate constant k [1]: 0.469
first-order primary biodegradation rate constant k [2]: 0.54
first-order primary biodegradation rate constant k [3]: 0.204
first-order primary biodegradation rate constant k [4]: 0.42
first-order primary biodegradation rate constant k [5]: 0.418
first-order primary biodegradation rate constant k [6]: 0.275
first-order primary biodegradation rate constant k [9]: 0.194
first-order primary biodegradation rate constant k [10]: 0.0324
first-order primary biodegradation rate constant k [11]: 0.374
first-order primary biodegradation rate constant k [12]: 0.186
first-order primary biodegradation rate constant k [13]: 0.52
first-order primary biodegradation rate constant k [14]: 0.556
first-order primary biodegradation rate constant k [15]: 0.429

COc1ccc(C(CN(C)C)C2(O)CCCCC2)cc1 (stereo unspecified) [Venlafaxine]
first-order primary biodegradation rate constant k [4]: 1.22
first-order primary biodegradation rate constant k [5]: 0.204
first-order primary biodegradation rate constant k [7]: 1.2
first-order primary biodegradation rate constant k [8]: 0.0466
first-order primary biodegradation rate constant k [11]: 0.0394
first-order primary biodegradation rate constant k [12]: 0.00206
first-order primary biodegradation rate constant k [14]: 0.0953
